{"source": "patent US9181279B2", "about": "“Cyclic amine derivatives as EP4 receptor antagonists” (ROTTAPHARM BIOTECH S.R.L., priority 2011, dated 2015)", "key": {"[1]": {"assay": "Pharmacokinetics in male Han Wistar rats, intravenous and oral", "type": "in vivo", "conditions": "male Han Wistar rat", "protocol": "The pharmacokinetics of compounds E7, E17 and E18, were studied in male Han Wistar rats. The rats were treated intravenously and orally (n=3 for each dose route) with compounds formulated as solutions. The rats were fitted with a jugular cannula for serial sampling. A full profile was acquired from each rat. Plasma extracts were quantitatively analyzed using a specific and sensitive LC-MS/MS bioanalytical method. Inter-individual variations between the three rats in each group were limited (CV for pharmacokinetic parameters was below 50%)."}, "human EP4 receptor": {"target": "human EP4 receptor (Homo sapiens (Human), UniProt P35408)", "sequence (P35408 whole entry)": "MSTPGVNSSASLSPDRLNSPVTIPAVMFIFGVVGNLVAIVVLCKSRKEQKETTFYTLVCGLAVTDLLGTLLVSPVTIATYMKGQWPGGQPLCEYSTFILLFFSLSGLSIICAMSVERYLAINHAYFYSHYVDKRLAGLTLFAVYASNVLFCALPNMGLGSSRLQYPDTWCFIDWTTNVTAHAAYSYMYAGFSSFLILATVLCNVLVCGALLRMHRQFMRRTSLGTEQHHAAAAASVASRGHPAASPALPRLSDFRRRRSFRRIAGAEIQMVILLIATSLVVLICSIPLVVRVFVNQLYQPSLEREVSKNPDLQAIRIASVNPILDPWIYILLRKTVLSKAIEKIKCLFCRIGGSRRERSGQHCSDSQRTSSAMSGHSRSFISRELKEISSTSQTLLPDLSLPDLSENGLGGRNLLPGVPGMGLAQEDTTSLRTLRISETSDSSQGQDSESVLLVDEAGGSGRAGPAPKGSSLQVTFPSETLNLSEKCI", "assay": "[3H]-Prostaglandin E2 membrane binding assay toward hEP4 receptors", "conditions": "[3H]-PGE2 1 nM, membranes of human EP4/HEK293 transfectant; read-out: Binding pKi (converted)", "protocol": "Human embryonic kidney cells (HEK-293) were stably transfected with expression vector for human EP4 receptor in according to the method described in FuGENE®6 Transfection Reagent's manual (Roche Applied Science®). […] Incubation was conducted in a polypropylene 96 multiwell for 90 min (EP4) or 60 min (EP2) at room temperature prior to separation of the bound and free radioligand by vacuum manifold rapid filtration on glass fiber filters (Unifilter GFB96, PerkinElmer Inc) pre-soaked in 0.3% polyethyleneimine."}}, "data": [{"smiles": "O=C(O)c1ccc(C2(NC(=O)C3CC(F)(F)CCN3Cc3ccc(C(F)(F)F)cc3)CC2)cc1", "note": "(single isomer, unassigned) [Example E18, 4-(1-(4,4-difluoro-1-(4-(trifluoromethyl)benzyl)piperidine-2-carboxamido)cyclopropyl)benzoic acid]", "values": [{"measurement": "Tlast", "setting": "[1]; iv, 1 mg/kg", "value": 24, "unit": "h"}, {"measurement": "F", "setting": "[1]; po, 1 mg/kg", "value": 93, "unit": "%"}, {"measurement": "Tlast", "setting": "[1]; po, 1 mg/kg", "value": 24, "unit": "h"}]}, {"smiles": "O=C(O)c1ccc(C2(NC(=O)[C@H]3CCCCN3Cc3ccc(C(F)(F)F)cc3)CC2)cc1", "note": "[Example E4, lithium (R)-4-(1-(1-(4-(trifluoromethyl)benzyl)piperidine-2-carboxamido)cyclopropyl)benzoate]", "values": [{"measurement": "Ki", "setting": "human EP4 receptor", "value": 39.8, "unit": "nM"}]}, {"smiles": "C[C@H](NC(=O)[C@H]1CCCN1Cc1ccc(C(F)(F)F)cc1)c1ccc(C(=O)O)cc1", "note": "[Example E27, lithium 4-((S)-1-((R)-1-(4-(trifluoromethyl)benzyl)pyrrolidine-2-carboxamido)ethyl)benzoate]", "values": [{"measurement": "Ki", "setting": "human EP4 receptor", "value": 50.1, "unit": "nM"}]}, {"smiles": "O=C(O)c1ccc(C2(NC(=O)[C@H]3CC(F)(F)CCN3Cc3ccc(C(F)(F)F)cc3)CC2)cc1", "note": "[Example E17, (R)-4-(1-(4,4-difluoro-1-(4-(trifluoromethyl)benzyl)piperidine-2-carboxamido)cyclopropyl)benzoic acid]", "values": [{"measurement": "F", "setting": "[1]; po, 1 mg/kg", "value": 85, "unit": "%"}, {"measurement": "Tlast", "setting": "[1]; po, 1 mg/kg", "value": 24, "unit": "h"}]}, {"smiles": "O=C(O)c1ccc(C2(NC(=O)C3CC4(CCN3Cc3ccc(C(F)(F)F)cc3)CC4)CC2)cc1", "note": "(single isomer, unassigned) [Example E7, 4-(1-(6-(4-(trifluoromethyl)benzyl)-6-azaspiro[2.5]octane-5-carboxamido)cyclopropyl)benzoic acid]", "values": [{"measurement": "AUC 0-t", "setting": "[1]; iv, 5 mg/kg", "value": 29200, "unit": "ng·h/mL"}, {"measurement": "AUC inf", "setting": "[1]; iv, 5 mg/kg", "value": 31800, "unit": "ng·h/mL"}, {"measurement": "CLp", "setting": "[1]; iv, 5 mg/kg", "value": 43, "unit": "mL/h"}, {"measurement": "Tlast", "setting": "[1]; iv, 5 mg/kg", "value": 24, "unit": "h"}, {"measurement": "Vss", "setting": "[1]; iv, 5 mg/kg", "value": 395, "unit": "mL"}, {"measurement": "t½", "setting": "[1]; iv, 5 mg/kg", "value": 7.4, "unit": "h"}, {"measurement": "AUC 0-t", "setting": "[1]; po, 5 mg/kg", "value": 22900, "unit": "ng·h/mL"}, {"measurement": "AUC inf", "setting": "[1]; po, 5 mg/kg", "value": 24900, "unit": "ng·h/mL"}, {"measurement": "Cmax", "setting": "[1]; po, 5 mg/kg", "value": 5330, "unit": "ng/mL"}, {"measurement": "F", "setting": "[1]; po, 5 mg/kg", "value": 78, "unit": "%"}, {"measurement": "Tlast", "setting": "[1]; po, 5 mg/kg", "value": 24, "unit": "h"}, {"measurement": "Tmax", "setting": "[1]; po, 5 mg/kg", "value": 0.5, "unit": "h"}, {"measurement": "t½", "setting": "[1]; po, 5 mg/kg", "value": 6.7, "unit": "h"}]}]}
